These are literature values, as cited in US20060052382A1, “3-Amino-4-phenylbutanoic acid derivatives as dipeptidyl peptidase inhibitors for the treatment or prevention of diabetes” (priority 2002, published 2006).

The subject of one series is cardiac allograft. Conditions: rats; Transplantation, 63: 1495-1500 (1997).
The next series concerns hematopoiesis. Conditions: mouse, cyclophosphamide-induced neutropenia; WO 99/56753.
The next series addresses T1, DP-IV (Homo sapiens, UniProt P27487).
T1 construct: GRF is rapidly degraded in plasma to GRF[3-44]
Conditions: plasma.

T1 sequence (P27487 39-766 limits assumed): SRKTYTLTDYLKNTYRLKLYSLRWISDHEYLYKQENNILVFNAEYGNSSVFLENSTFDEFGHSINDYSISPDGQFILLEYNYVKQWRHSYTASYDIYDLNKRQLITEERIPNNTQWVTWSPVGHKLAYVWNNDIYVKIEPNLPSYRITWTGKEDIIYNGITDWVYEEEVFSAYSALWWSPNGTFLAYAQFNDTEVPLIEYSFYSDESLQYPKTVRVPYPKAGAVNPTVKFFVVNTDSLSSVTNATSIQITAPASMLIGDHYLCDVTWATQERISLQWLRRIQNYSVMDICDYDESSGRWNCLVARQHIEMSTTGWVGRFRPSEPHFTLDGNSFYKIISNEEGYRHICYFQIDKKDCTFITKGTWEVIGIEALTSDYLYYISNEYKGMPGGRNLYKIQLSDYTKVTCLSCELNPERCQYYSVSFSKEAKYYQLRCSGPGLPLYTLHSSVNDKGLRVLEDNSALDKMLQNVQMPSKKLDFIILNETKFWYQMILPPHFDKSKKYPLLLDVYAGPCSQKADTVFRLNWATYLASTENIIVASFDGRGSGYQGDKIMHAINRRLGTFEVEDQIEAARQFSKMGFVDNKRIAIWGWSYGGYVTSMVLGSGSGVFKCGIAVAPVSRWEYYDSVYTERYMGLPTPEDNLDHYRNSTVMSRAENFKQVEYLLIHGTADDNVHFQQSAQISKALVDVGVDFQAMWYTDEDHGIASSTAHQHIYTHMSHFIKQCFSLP

As to `CC(C)N1CCC(c2ccccc2)(c2ccccc2)CC1` [Prodipine, Pro-Pro-diphenyl-phosphonate], the cardiac allograft survival result with cardiac allograft is recorded as “double cardiac allograft survival in rats from day 7 to day 14”.
As for `CC(C)[C@H](N)C(=O)N1CCC[C@H]1B(O)O` [Val-Boro-Pro], the stimulation of hematopoiesis entry in the series on hematopoiesis is on record as “stimulated hematopoiesis”.
Turning to diprotin A, at DP-IV, the “prevention of GRF degradation to GRF[3-44]” value was “prevented”.
